From publication PMC3724809, “Analysis of the Interaction Interfaces of the N-Terminal Domain from Pseudomonas aeruginosa MutL” (PLoS ONE, 2013)

Columns and labels:
[1] = target: T1, PaNTD (P. aeruginosa MutL N-terminal domain) (Pseudomonas aeruginosa, UniProt Q9HUL8); assay: size-exclusion chromatography, nucleotide-induced dimerization; type: binding; conditions: 5 mM MgCl2, 150 mM KCl, 20 mM Tris-HCl pH 7.9, room temperature
T1 sequence (Q9HUL8 1-339): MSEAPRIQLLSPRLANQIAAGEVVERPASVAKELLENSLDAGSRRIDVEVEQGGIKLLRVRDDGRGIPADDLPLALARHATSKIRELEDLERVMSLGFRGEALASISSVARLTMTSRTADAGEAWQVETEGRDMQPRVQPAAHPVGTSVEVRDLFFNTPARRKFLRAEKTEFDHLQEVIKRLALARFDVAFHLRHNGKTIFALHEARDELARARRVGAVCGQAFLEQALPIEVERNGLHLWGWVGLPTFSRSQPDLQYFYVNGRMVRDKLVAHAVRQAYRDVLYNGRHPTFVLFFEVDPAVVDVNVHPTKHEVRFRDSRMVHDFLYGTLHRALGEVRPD

[2] = target: T2, EcNTD (E. coli MutL N-terminal domain, LN40) (Escherichia coli, UniProt P23367); assay: DSS chemical cross-linking, nucleotide-induced dimerization, SDS-PAGE; type: binding; conditions: 1 mM AMPPNP, 5 mM MgCl2, 150 mM KCl, 20 mM HEPES pH 7.4, 4 °C
T2 sequence (P23367 1-342): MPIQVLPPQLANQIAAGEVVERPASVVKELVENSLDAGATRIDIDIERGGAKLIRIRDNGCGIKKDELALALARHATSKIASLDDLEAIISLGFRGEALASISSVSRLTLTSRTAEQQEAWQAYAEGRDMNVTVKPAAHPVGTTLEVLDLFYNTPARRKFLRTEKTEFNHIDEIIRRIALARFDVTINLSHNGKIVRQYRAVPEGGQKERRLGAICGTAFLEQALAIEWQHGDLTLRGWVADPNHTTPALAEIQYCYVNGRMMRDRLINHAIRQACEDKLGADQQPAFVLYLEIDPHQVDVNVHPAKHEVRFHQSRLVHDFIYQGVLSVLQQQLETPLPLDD

[3] = target: the molecule itself; assay: SEC; Superose 12 10/30, 20 mM Tris-HCl pH 7.9, 150 mM KCl, 5 mM MgCl2, 1 mM DTT, room temperature; 1 mg/ml PaNTD or 2 mg/ml EcNTD (legend: 22 µM) without nucleotide, with ADP or with ATP; calibrated with BSA 45 and 66 kDa

Nc1ncnc2c1ncn2[C@@H]1O[C@H](COP(=O)(O)OP(=O)(O)O)[C@@H](O)[C@H]1O [ADP]
size-exclusion chromatography, nucleotide-induced dimerization [1]: PaNTD binding to ADP displaced monomer-dimer equilibrium as judged by size-exclusion chromatography

Nc1ncnc2c1ncn2[C@@H]1O[C@H](COP(=O)(O)OP(=O)(O)NP(=O)(O)O)[C@@H](O)[C@H]1O [AMPPNP]
DSS chemical cross-linking, nucleotide-induced dimerization, SDS-PAGE [2]: EcNTD dimers were only observed in presence of AMPPNP (Figure S5)

Nc1ncnc2c1ncn2[C@@H]1O[C@H](COP(=O)(O)OP(=O)(O)OP(=O)(O)O)[C@@H](O)[C@H]1O [ATP]
size-exclusion chromatography, nucleotide-induced dimerization [1]: No major differences were observed among the elution pattern of ADP or ATP bound PaNTD

B1: Pseudomonas aeruginosa MutL N-terminal domain (PaNTD, amino acids 1-339), His6-tagged (domain or fragment, UniProt Q9HUL8 1-339, looked up)
chain: MSEAPRIQLLSPRLANQIAAGEVVERPASVAKELLENSLDAGSRRIDVEVEQGGIKLLRVRDDGRGIPADDLPLALARHATSKIRELEDLERVMSLGFRGEALASISSVARLTMTSRTADAGEAWQVETEGRDMQPRVQPAAHPVGTSVEVRDLFFNTPARRKFLRAEKTEFDHLQEVIKRLALARFDVAFHLRHNGKTIFALHEARDELARARRVGAVCGQAFLEQALPIEVERNGLHLWGWVGLPTFSRSQPDLQYFYVNGRMVRDKLVAHAVRQAYRDVLYNGRHPTFVLFFEVDPAVVDVNVHPTKHEVRFRDSRMVHDFLYGTLHRALGEVRPD
notes: MutL of Pseudomonas aeruginosa, N-terminal ATPase domain, residues 1-339 of PaMutL, amplified from genomic DNA; monomeric MW 37.7 kDa; The pET-15b vector should add an N-terminal His6 tag with a thrombin site (surmised, as is cloning through NdeI); no cleavage of the tag is described; also called His6-PaNTD; His-tag PaNTD
dimer share of peak area [3]: ~0.2 share of the dimer peak (monomer 0.8)
stoichiometry N [3]: 2
